The test system of experiment [1] is S. Typhimurium ATCC 14028 (JSG210) biofilms. Put plainly: Biofilm inhibition assay (crystal violet staining). It is filed as cell-based, Salmonella enterica serovar Typhimurium. Conditions: for IC50: inhibition of S. Typhimurium biofilm formation, compound present 24 h, crystal violet OD570, mean ± standard deviation; for anti-biofilm activity (inhibition and dispersion) in words: S. Typhimurium biofilms in vitro; for fold improvement of IC50 versus comparator: 6a vs 4c, 6b vs 4d, 6g vs 4c and 4d, 8i vs 8b. The method, then:
Inhibition of biofilm formation is assessed by growing bacteria in a 96-well plate in the absence (control) or presence of test compounds. After 24 hours, the wells are washed to remove planktonic bacteria, and the remaining surface attached bacteria (biofilm) are stained with crystal violet (CV). The wells are then washed again to remove excess CV, and the remaining CV is solubilized with a solution of acetic acid and then quantified by spectrophotometry at 570 nm. A dose response curve is then constructed from which an IC50 value is determined.
(§1) Salmonella biofilm growth and crystal violet staining. […] For biofilm assays, individual bacterial colonies were picked and used to inoculate LB broth for overnight liquid cultures, which were grown at 37° C. with aeration using a rotating drum. […] Biofilm plates were then submerged in dH2O to wash away any remaining non-adherent bacteria and heat fixed (1h, 60° C.). Biofilms were then stained with a 33% crystal violet solution (6 mL PBS, 3.3 mL crystal violet, 333 μL methanol, 333 μL isopropanol) for 5 min. and washed twice by submerging in dH2O before releasing the bound dye with 33% glacial acetic acid. Biofilm growth was then quantified by measuring the optical density of the solubilized dye at 570 nm using a spectrophotometer (Molecular Devices, SpectraMax M5).
(§2) Biofilm Inhibition and Dispersion Assays and IC50/EC50 Determination. […] Biofilms were then grown as described above for a total of 24 h prior to CV staining. […] Biofilms were then incubated for an additional 24 h in the presence of compounds prior to CV staining. IC50/EC50 values were calculated by plotting normalized compound activity (percent biofilm formed and percent remaining, respectively) as a function of log10 compound concentration and fitting a dose response curve (log[inhibitor] vs. normalized response, variable slope).

Experiment [2] has the same test system. Put plainly: Biofilm dispersion assay on pre-formed biofilms (crystal violet staining). It is filed as cell-based, Salmonella enterica serovar Typhimurium. Conditions: for EC50: 50% dispersion of biofilms established 24 h, then 24 h with compound, crystal violet OD570, mean ± standard deviation; for fold improvement of dispersion activity (EC50) versus comparator: 4d vs 1, 6g vs 4c and 4d, lead compounds vs parent compound. As to the method: as §1, §2

In general, IC50 refers to the concentration at which inhibition is half-maximal. Usually EC50 stands for the concentration giving half of the maximal effect. `CN(Cc1ccccc1)CC1CCN(CCc2ccccc2F)CC1` [Compound 3.1a] had an IC50 in experiment [1] of 5 µM. In addition, the EC50 in experiment [2] is above 75 µM.
On the same counts, the results for `Cc1ccccc1CN(C)CC1CCN(CCc2ccccc2F)CC1` [Compound 3.1b] are 4.4 µM and above 75 µM.
As to `CN(Cc1ccccc1F)CC1CCN(CCc2ccccc2F)CC1` [Compound 3.1c], half-maximal inhibition in experiment [1] (IC50) required 14.9 µM. Besides, the EC50 in experiment [2] was above 75 µM.
With `CN(Cc1ccccc1Cl)CC1CCN(CCc2ccccc2F)CC1` [Compound 3.1d], the IC50 in experiment [1] is 6.3 µM. For the same molecule, the EC50 in experiment [2] was above 75 µM.
For `CN(Cc1ccccc1Br)CC1CCN(CCc2ccccc2F)CC1` [Compound 3.1e] the same measures were 6.5 µM and 42 µM.
On the same counts, the results for `CN(Cc1ccccc1I)CC1CCN(CCc2ccccc2F)CC1` [Compound 3.1f] are 4.4 µM and 53 µM.
Consider `CN(Cc1cccc(Cl)c1)CC1CCN(CCc2ccccc2F)CC1` [Compound 3.1h], for which the midpoint of inhibition in experiment [1], the IC50, lay at 5.6 µM. For the same molecule, the EC50 in experiment [2] is above 75 µM.
As for `CN(Cc1ccc(F)cc1)CC1CCN(CCc2ccccc2F)CC1` [Compound 3.1i], in experiment [1], half-maximal inhibition (IC50) was put at 5.5 µM. In experiment [2], the EC50 is above 75 µM.
On the same counts, the results for `CN(Cc1cccc(Cl)c1Cl)CC1CCN(CCc2ccccc2F)CC1` [Compound 3.1l] are 5.6 µM and 43 µM.
In experiment [1], `CN(Cc1ccccc1)CC1CCN(CCc2ccc(Cl)c(Cl)c2)CC1` [Compound 3.2a] yielded a concentration for half-maximal inhibition (IC50) of 0.59 µM. The EC50 in experiment [2] is 35 µM.
On the same counts, the results for `CN(Cc1ccccc1I)CC1CCN(CCc2ccc(Cl)c(Cl)c2)CC1` [Compound 3.2d] are 3.4 µM and 26 µM.
For `CN(Cc1cccc(Cl)c1)CC1CCN(CCc2ccc(Cl)c(Cl)c2)CC1` [Compound 3.2f] the same measures were 2.3 µM and 21 µM.
On the same counts, the results for `CN(Cc1ccc(Cl)c(Cl)c1)CC1CCN(CCc2ccc(Cl)c(Cl)c2)CC1` [Compound 3.2h] are 0.96 µM and 17 µM.
For `CN(Cc1ccccc1)CC1CCN(CCc2ccc(Cl)cc2Cl)CC1` [Compound 3.3a], 4.3 ± 2.1 µM corresponded to half-maximal inhibition in experiment [1] (IC50). Moreover, the EC50 in experiment [2] was determined as 11 ± 7 µM.
For `CN(Cc1ccccc1Cl)CC1CCN(CCc2ccc(Cl)cc2Cl)CC1` [Compound 3.3c] the same measures were 11.3 ± 7.3 µM and 14 ± 10 µM.
In experiment [1], `CN(Cc1ccccc1I)CC1CCN(CCc2ccc(Cl)cc2Cl)CC1` [Compound 3.3d] showed an IC50 of 10.1 ± 4.5 µM. For the same molecule, the EC50 in experiment [2] was above 50 µM.
For `CN(Cc1cccc(Cl)c1Cl)CC1CCN(CCc2ccc(Cl)cc2Cl)CC1` [Compound 3.3i] the same measures were 6.5 ± 2.5 µM and 8 ± 4 µM.
For `CN(Cc1cccc2ccccc12)CC1CCN(CCc2ccccc2F)CC1` [Compound 3.4a] the same measures were 4.2 ± 2.9 µM and 12 ± 8 µM.
The molecule `CN(Cc1ccccn1)CC1CCN(CCc2ccccc2F)CC1` [Compound 3.8a] showed an IC50 in experiment [1] above 20 µM. In addition, the EC50 in experiment [2] was above 50 µM.
On the same counts, the results for `CN(Cc1ccncc1)CC1CCN(CCc2ccccc2F)CC1` [Compound 3.8c] are above 20 µM and above 50 µM.
For `CN(Cc1ccsc1)CC1CCN(CCc2ccccc2Cl)CC1` [Compound 4a] the same measures were 6 ± 1.4 µM and 232 ± 6 µM.
In turn, `CN(Cc1ccsc1)CC1CCN(CCc2ccccc2Br)CC1` [Compound 4b] displayed an IC50 in experiment [1] of 7.2 ± 1.6 µM. The EC50 in experiment [2] is 308 ± 11 µM.
For `CN(Cc1ccsc1)CC1CCN(CCc2cccc(F)c2)CC1` [Compound 4c] the same measures were 6.9 ± 0.1 µM and 388 ± 19 µM.
`CN(Cc1ccsc1)CC1CCN(CCc2ccc(F)cc2)CC1` [Compound 4d] returned an IC50 in experiment [1] of 16.8 ± 3.4 µM. For the same molecule, in experiment [2], the EC50 worked out at 235 µM and the “fold improvement of dispersion activity (EC50) versus comparator” value is given as “ca. 3.5”.
As to `CN(Cc1ccsc1)CC1CCN(CCc2cc(F)cc(F)c2)CC1` [Compound 4e], in experiment [1], the “anti-biofilm activity (inhibition and dispersion) in words” value is “inactive”; the IC50 is above 200 µM. In addition, the EC50 in experiment [2] is above 12000 µM.
The molecule `COc1ccccc1CCN1CCC(CN(C)Cc2ccsc2)CC1` [Compound 4f] returned an IC50 in experiment [1] of 16.9 ± 5.2 µM. The EC50 in experiment [2] worked out at 11760 ± 77 µM.
On the same counts, the results for `CN(Cc1ccsc1)CC1CCN(CCc2ccccc2)CC1` [Compound 4g] are 21.2 ± 2.6 µM and above 12000 µM.
With `CNCC1CCN(CCc2ccccc2F)CC1` [Compound 5], the “anti-biofilm activity (inhibition and dispersion) in words” value in experiment [1] is on record as “abrogated activity”. Besides, the IC50 in experiment [1] (Salmonella enterica) was above 200 µM. In addition, the EC50 in experiment [2] (Salmonella enterica) is above 12000 µM.
On to `CN(Cc1ccsc1)CC1CCN(CCc2cccc(Cl)c2)CC1` [Compound 6a], for which, in experiment [1], the “fold improvement of IC50 versus comparator” value is “over two-fold” and the IC50 was found to be 2 µM. Besides, in experiment [2], the EC50 was found to be 135 ± 12 µM.
On the same counts, the results for `CN(Cc1ccsc1)CC1CCN(CCc2ccc(Cl)cc2)CC1` [Compound 6b] are “over four-fold”, 3 ± 1.4 µM and 69 ± 4 µM.
Regarding `CN(Cc1ccsc1)CC1CCN(CCc2cccc(Br)c2)CC1` [Compound 6c], the IC50 in experiment [1] turned out to be 3.6 µM. The EC50 in experiment [2] was 83 ± 6 µM.
For `CN(Cc1ccsc1)CC1CCN(CCc2ccc(Br)cc2)CC1` [Compound 6d] the same measures were 3 ± 0.7 µM and 57 ± 4 µM.
In experiment [1], `CN(Cc1ccsc1)CC1CCN(CCc2cc(Cl)cc(Cl)c2)CC1` [Compound 6e] returned an IC50 of 1.6 µM. In addition, the EC50 in experiment [2] came out at 45 µM.
On to `CN(Cc1ccsc1)CC1CCN(CCc2cc(Br)cc(Br)c2)CC1` [Compound 6f], for which, in experiment [1], the IC50 amounted to 3.4 µM. The EC50 in experiment [2] is 42 µM.
Take `CN(Cc1ccsc1)CC1CCN(CCc2ccc(F)c(F)c2)CC1` [Compound 6g]: in experiment [1], the “fold improvement of IC50 versus comparator” value is given as “over two-fold” and the IC50 turned out to be 3 ± 0.2 µM. In addition, in experiment [2], the EC50 worked out at 87 ± 13 µM and the “fold improvement of dispersion activity (EC50) versus comparator” value is “over two-fold”.
In the case of `CN(Cc1ccsc1)CC1CCN(CCc2c(F)cccc2F)CC1` [Compound 6h], the IC50 in experiment [1] amounted to 6.3 ± 0.6 µM. Further, in experiment [2], the EC50 amounted to 138 ± 18 µM.
Molecule `CN(Cc1ccsc1)CC1CCN(Cc2ccccc2F)CC1` [Compound 6i] yielded an IC50 in experiment [1] of 8.8 ± 0.8 µM. Moreover, in experiment [2], the EC50 came out at 125 ± 6 µM.
`CN(Cc1ccsc1)CC1CCN(Cc2ccccc2Cl)CC1` [Compound 6j] had an IC50 in experiment [1] of 2.7 ± 0.7 µM. In experiment [2], the 50% effective concentration (EC50) was 1810 ± 176 µM.
For `CN(Cc1ccsc1)CC1CCN(Cc2ccccc2)CC1` [Compound 6k] the same measures were 26.7 ± 1.2 µM and above 12000 µM.
In the case of `CN(Cc1ccsc1)CC1CCN(CCCc2ccccc2F)CC1` [Compound 6l], the IC50 in experiment [1] stood at 11.5 ± 2.7 µM. The EC50 in experiment [2] worked out at 221 ± 17 µM.
On the same counts, the results for `CN(Cc1ccsc1)CC1CCN(CCCc2ccccc2Cl)CC1` [Compound 6m] are 5.4 ± 1.2 µM and 59 ± 4 µM.
For `CN(Cc1ccsc1)CC1CCN(CCCc2ccccc2)CC1` [Compound 6n] the same measures were 78.1 ± 3.7 µM and above 12000 µM.
For `CN(Cc1ccsc1)CC1CCN(CCc2ccc(Cl)c(Cl)c2)CC1` [Compound 7a] the same measures were 1.4 µM and 45 ± 2 µM.
`CN(Cc1ccsc1)CC1CCN(CCc2ccc(Cl)cc2Cl)CC1` [Compound 7c]: the midpoint of inhibition in experiment [1], the IC50, lay at 2.5 ± 0.5 µM. Also, in experiment [2], the EC50 amounted to 22 ± 2 µM.
On the same counts, the results for `CN(Cc1ccsc1)CC1CCN(CCc2ccccc2C(F)(F)F)CC1` [Compound 7e] are 12.7 ± 4.1 µM and 60 ± 2 µM.
For `CN(Cc1ccsc1)CC1CCN(Cc2ccccc2Br)CC1` [Compound 7f] the same measures were 4.9 ± 0.8 µM and 79 ± 3 µM.
With `CN(Cc1ccsc1)CC1CCN(Cc2cccc(Cl)c2)CC1` [Compound 7h], in experiment [1], the IC50 is 5.2 ± 1.3 µM. Also, the EC50 in experiment [2] was determined as 299 ± 21 µM.
For `CN(Cc1ccsc1)CC1CCN(Cc2cccc(Br)c2)CC1` [Compound 7i] the same measures were 6.5 ± 2.9 µM and 142 ± 9 µM.
On the same counts, the results for `CN(Cc1ccsc1)CC1CCN(Cc2ccc(F)cc2)CC1` [Compound 7j] are 12.9 ± 1.4 µM and 443 ± 52 µM.
For `CN(Cc1ccsc1)CC1CCN(Cc2ccc(Cl)cc2)CC1` [Compound 7k] the same measures were 5.9 ± 2.8 µM and 934 ± 26 µM.
In experiment [1], `CN(Cc1ccsc1)CC1CCN(Cc2ccc(Br)cc2)CC1` [Compound 7l] yielded an IC50 of 8.5 ± 1.8 µM. The EC50 in experiment [2] was 127 ± 13 µM.
On the same counts, the results for `CN(Cc1ccsc1)CC1CCN(Cc2cc(F)cc(F)c2)CC1` [Compound 7m] are 14.2 ± 1.7 µM and above 12000 µM.

The values are drawn from patent publication US20250161285A1, “BACTERIAL BIOFILM INHIBITORS” (THE RESEARCH INSTITUTE AT NATIONWIDE CHILDREN'S HOSPITAL, priority 2022, published 2025).
